Where a SMILES comes first, the peptide text is derived from it. [ ]: non-standard residue; d: D form.
T1: Solute carrier organic anion transporter family member 1A4 (Mus musculus, UniProt Q9EP96)
T1 sequence (Q9EP96 whole entry): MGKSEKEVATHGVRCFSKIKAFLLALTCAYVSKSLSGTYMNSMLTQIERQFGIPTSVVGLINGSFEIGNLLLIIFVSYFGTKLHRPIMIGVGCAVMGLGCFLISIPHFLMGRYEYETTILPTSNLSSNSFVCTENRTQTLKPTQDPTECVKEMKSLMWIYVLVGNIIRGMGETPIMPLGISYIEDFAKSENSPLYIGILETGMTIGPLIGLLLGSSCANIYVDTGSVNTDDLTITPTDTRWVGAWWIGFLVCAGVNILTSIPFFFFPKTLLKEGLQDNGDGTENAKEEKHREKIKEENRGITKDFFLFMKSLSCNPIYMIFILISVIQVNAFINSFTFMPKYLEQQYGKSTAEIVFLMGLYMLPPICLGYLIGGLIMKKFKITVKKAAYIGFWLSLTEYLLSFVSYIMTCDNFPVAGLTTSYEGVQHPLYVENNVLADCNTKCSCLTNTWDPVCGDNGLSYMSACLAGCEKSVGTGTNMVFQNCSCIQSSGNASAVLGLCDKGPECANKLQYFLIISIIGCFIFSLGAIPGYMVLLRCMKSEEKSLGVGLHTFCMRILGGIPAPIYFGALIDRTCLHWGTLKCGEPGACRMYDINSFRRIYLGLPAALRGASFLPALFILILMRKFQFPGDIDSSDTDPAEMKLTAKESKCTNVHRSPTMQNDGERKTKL

B1: Solute carrier organic anion transporter family member 1A4 (Mus musculus) (protein)
chain: T1 sequence (Q9EP96 whole entry)

Legend:
[1] = molecular target: T1, Solute carrier organic anion transporter family member 1A4; experiment: (§1) TP_TRANSPORTER: uptake in Xenopus laevis oocytes; type: functional, cell-based; details: oocyte
[2] = substrate: C[C@H]1O[C@@H](O[C@H]2[C@@H](O)C[C@H](O[C@H]3[C@@H](O)C[C@H](O[C@H]4CC[C@@]5(C)[C@H](CC[C@@H]6[C@@H]5C[C@@H](O)[C@]5(C)[C@@H](C7=CC(=O)OC7)CC[C@]65O)C4)O[C@@H]3C)O[C@@H]2C)C[C@H](O)[C@@H]1O; experiment: as §1; type: functional, cell-based, Oocyte

Molecule	Activity [1]	Km [2]
CC(C)C[C@@H]1NC(=O)[C@@H](C(C)C)NC(=O)[C@@H]2CCCN2C(=O)[C@@H](CC(=O)O)NC(=O)[C@@H](Cc2c[nH]c3ccccc23)NC1=O [BQ-123] (cyclo(L[dW][dD]P[dV]))	substrate [+]	
C[C@]12CC[C@@H]3c4ccc(OS(=O)(=O)O)cc4CC[C@H]3[C@@H]1CCC2=O [ESTRONE SULFURIC ACID]	substrate [+]	
C[C@@H]1O[C@@H](O[C@H]2C[C@@H](O)[C@]3(CO)[C@H]4[C@H](O)C[C@]5(C)[C@@H](C6=CC(=O)OC6)CC[C@]5(O)[C@@H]4CC[C@]3(O)C2)[C@H](O)[C@H](O)[C@H]1O [OUABAIN]	substrate [+]	
C[C@]12CC[C@H](OS(=O)(=O)O)CC1=CC[C@@H]1[C@@H]2CC[C@]2(C)C(=O)CC[C@@H]12 [PRASTERONE SULFURIC ACID]	substrate [+]	
O=C1OC(c2ccc(O)c(S(=O)(=O)[O-])c2)(c2ccc(O)c(S(=O)(=O)[O-])c2)c2c(Br)c(Br)c(Br)c(Br)c21.[Na+].[Na+] [SULFOBROMOPHTHALEIN SODIUM]	substrate [+]	
B1		5.7 µM

From ChEMBL document CHEMBL2073934, “Functional characterization of the mouse organic-anion-transporting polypeptide 2” (Biochim Biophys Acta, 2002)
